Measurements from US20090274773A1, “ANTIPROLIFERATIVE COMBINATION COMPRISING CYC-682 AND A CYTOTOXIC AGENT” (Cyclacel Limited, priority 2005, published 2009).
Where two headings read alike, the source gives them in different places.

Legend:
Type in all cases: cell-based, human
COLO205 = assay: MTT growth inhibition assay, single agent; settings: read-out: Antiproliferative effects IC50s (MTT assay)
Method: (§1) All cell lines were obtained from the ATCC (Rockville, Md.). Cells were grown as monolayers in RPMI medium supplemented with 10% fetal calf serum (Invitrogen, Cergy-Pontoise, France), 2 mM glutamine, 100 units/ml penicillin and 100 μg/ml streptomycin. All cells were split twice a week using trypsin/EDTA (0.25% and 0.02%, respectively; Invitrogen, Cergy-Pontoise, France) and seeded at a concentration of 2.5×10^4 cells/ml. All cell lines were tested regularly for Mycoplasma contamination by PCR using a Stratagene kit (La Jolla, Calif.).
(§2) The MTT assay was carried out as described previously (Hansen M B, Nielsen S E, Berg K. Re-examination and further development of a precise and rapid dye method for measuring cell growth/cell kill. J Immunol Methods. 1989 May 12; 119(2):203-10). In brief, cells were seeded in 96-well tissue culture plates at a density of 2×10^3 cells/well. Cell viability was determined after a 120-hour incubation, by the calorimetric conversion of yellow, water-soluble tetrazolium MTT (3-[4,5-dimethylthiazol-2-yl]-2,5-diphenyltetrazolium bromide; Sigma, Saint-Quentin Fallavier, France), into purple, water-insoluble formazan. This reaction is catalyzed by mitochondrial dehydrogenases and is used to estimate the relative number of viable cells (Mosmann, T, Rapid calorimetric assay for cellular growth and survival: application to proliferation and cytotoxicity assays. J Immunol Methods. 1983 Dec. 16; 65 (1-2):55-63). Cells were incubated with 0.4 mg/ml MTT for 4 hours at 37° C. After incubation, the supernatant was discarded, the cell pellet was resuspended in 0.1 ml of DMSO and the absorbance was measured at 560 nm using a microplate reader (Dynatech, Michigan). Wells with untreated cells or with drug-containing medium without cells were used as positive and negative controls, respectively. Growth inhibition curves were plotted as a percentage of untreated control cells.
(§3) The cells were seeded at 2×10^3 cells/well in 96-well plates and treated 24 hours later with increasing concentrations of CYC682. After incubation times of 1 hour, 24 hours or 48 hours, the cells were washed and post-incubated in drug-free medium for 72 hours. Growth inhibition was then determined by the MTT assay.

HCC2998 = assay: MTT growth inhibition assay, single agent; settings: read-out: Antiproliferative effects IC50s (MTT assay)
Method: as §1, §2, §3

HCT116 = assay: MTT growth inhibition assay, single agent; settings: read-out: Antiproliferative effects IC50s (MTT assay)
Method: as §1, §2, §3

HOP62 = assay: MTT growth inhibition assay, single agent; settings: read-out: Antiproliferative effects IC50s (MTT assay)
Method: as §1, §2, §3

HOP92 = assay: MTT growth inhibition assay, single agent; settings: read-out: Antiproliferative effects IC50s (MTT assay)
Method: as §1, §2, §3

HT29 = assay: MTT growth inhibition assay, single agent; settings: read-out: Antiproliferative effects IC50s (MTT assay)
Method: as §1, §2, §3

IGROV1 = assay: MTT growth inhibition assay, single agent; settings: read-out: Antiproliferative effects IC50s (MTT assay)
Method: as §1, §2, §3

MCF7 = assay: MTT growth inhibition assay, single agent; settings: 24 hours exposure, read-out: Antiproliferative effects IC50s (MTT assay)
Method: as §1, §2, §3

MDA-MB-435 = assay: MTT growth inhibition assay, single agent; settings: 24 hours exposure, read-out: Antiproliferative effects IC50s (MTT assay)
Method: as §1, §2, §3

OVCAR1 = assay: MTT growth inhibition assay, single agent; settings: 24 hours exposure, read-out: Antiproliferative effects IC50s (MTT assay)
Method: as §1, §2, §3

NSCLC cell line H1299 = assay: CNDAC combinations (alamar blue, Calcusyn Combination Index)
Method: Experiments in the NSCLC cell lines H1299 or RERF-LC-MA were performed in 96-well plates, with cells seeded at a density of 3,000/well, in DMEM containing 10% (v/v) FCS. Stock solutions of all drugs were made up in dimethylsulfoxide (DMSO), with the exception of gemcitabine, which was dissolved in 0.9% (w/v) sterile saline solution.
For experimental assessment of potential synergistic interactions, the concomitant treatment regime involved simultaneous treatment of cells with CNDAC and the other agent under investigation for 72 h, alongside suitable controls of cells treated with the individual compounds alone for 72 hr. In the sequential treatment regimes, one drug was added to the cells 2 h after plating, and left for 24 h. Media was then aspirated, replaced with fresh media containing the second drug and incubated for 72 h. The two individual treatment controls for the sequential treatment regime involved substituting one of the drug treatments with drug-free media. […] Drug interactions were analysed using the Calcusyn software package (BioSoft, Cambridge, U.K.) described below.

[1] = named agent in combination with CNDAC, H1299, CNDAC 24 h then other agent 72 h
[2] = named agent in combination with CNDAC, H1299, named agent 24 h then CNDAC 72 h
[3] = named agent in combination with CNDAC, H1299, simultaneous treatment 72 h
[4] = Homo sapiens, COLO 205, 24 hours exposure
[5] = Homo sapiens, HCC 2998, 24 hours exposure
[6] = Homo sapiens, HCT-116, 24 hours exposure
[7] = Homo sapiens, HOP-62, 24 hours exposure
[8] = Homo sapiens, HOP-92, 24 hours exposure
[9] = Homo sapiens, HT-29, 24 hours exposure
[10] = Homo sapiens, IGROV-1, 24 hours exposure

## N.N.[Cl][Pt][Cl] [Cisplatin, cis-diamminedichlorplatinum (II)]
COLO205; 24 hours exposure
  IC50: 9.5 ± 2.5 µM
HCC2998; 24 hours exposure
  IC50: 25 ± 5 µM
HCT116; 24 hours exposure
  IC50: 9.2 ± 0.9 µM
HOP62; 24 hours exposure
  IC50: 9.3 ± 0.9 µM
HOP92; 24 hours exposure
  IC50: 4.4 ± 0.4 µM
HT29; 24 hours exposure
  IC50: 25 ± 3 µM
IGROV1; 24 hours exposure
  IC50: 26 ± 6 µM
MCF7
  IC50: 32 ± 2 µM
MDA-MB-435
  IC50: 13 ± 2.6 µM
OVCAR1
  IC50: 12.1 ± 3.93 µM
NSCLC cell line H1299; H1299, concomitant treatment
  Interaction with CNDAC at ED50 (in words): weak synergy
NSCLC cell line H1299; H1299, pre-treatment with named agent
  Interaction with CNDAC at ED50 (in words): synergy
NSCLC cell line H1299; combination with CNDAC, regime not specified
  Interaction with CNDAC (in words), summary of Table 3: synergistic drug interactions
NSCLC cell line H1299; [1]
  Combination Index at ED75, CNDAC pretreatment: 1.5
  Combination Index at ED90, CNDAC pretreatment: 13.68
NSCLC cell line H1299; named agent in combination with CNDAC, H1299, CNDAC 24 h then other agent 72 h, C.I. <1 synergistic, 1 additive, >1 antagonistic
  Combination Index at ED50, CNDAC pretreatment: 1.16
NSCLC cell line H1299; [2]
  Combination Index at ED50, Other (named agent) pretreatment: 0.65
  Combination Index at ED75, Other (named agent) pretreatment: 0.93
  Combination Index at ED90, Other (named agent) pretreatment: 1.96
NSCLC cell line H1299; [3]
  Combination Index at ED50, Concomitant: 0.77
  Combination Index at ED75, Concomitant: 1.65
  Combination Index at ED90, Concomitant: 7.56

## O=c1[nH]cc(F)c(=O)[nH]1 [5-FU, 5-fluorouracil]
COLO205; [4]
  IC50: 240 ± 20 µM
HCC2998; [5]
  IC50: 10 ± 1 µM
HCT116; [6]
  IC50: 5.3 ± 1.3 µM
HOP62; [7]
  IC50: 118 ± 32 µM
HOP92; [8]
  IC50: 11 ± 1 µM
HT29; [9]
  IC50: 24 ± 1 µM
IGROV1; [10]
  IC50: 29 ± 1 µM
MCF7; Homo sapiens
  IC50: 10 ± 1 µM
MDA-MB-435; Homo sapiens
  IC50: 10 ± 2 µM
OVCAR1; Homo sapiens
  IC50: 24 ± 1 µM

## Nc1ccn([C@@H]2O[C@H](CO)[C@H](O)[C@@H]2O)c(=O)n1 [Ara-C, 4-amino-1-[(2R,3S,4R,5R)-3,4-dihydroxy-5-(hydroxymethyl)oxolan-2-yl]pyrimidin-2-one]
COLO205; [4]
  IC50: 28 ± 8 µM
HCC2998; [5]
  IC50: 3.7 ± 0.5 µM
HCT116; [6]
  IC50: 1.2 ± 0.4 µM
HOP62; [7]
  IC50: 6.3 ± 2.8 µM
HOP92; [8]
  IC50: 1.3 ± 0.3 µM
HT29; [9]
  IC50: 130 ± 40 µM
IGROV1; [10]
  IC50: 89 ± 21 µM
MCF7; Homo sapiens
  IC50: > 300 µM
MDA-MB-435; Homo sapiens
  IC50: 38 ± 9 µM
OVCAR1; Homo sapiens
  IC50: > 300 µM
